Columns and labels:
nitric oxide (nitrite) = experiment: LPS-stimulated J774 macrophages: nitric oxide production measured as nitrite; assay type: cell-based
Text: In in vitro studies, J774 macrophages were exposed to bacterial lipopolysaccharide (LPS), to induce pro-inflammatory mediator production and cytotoxicity. […] This assay (the LPS-stimulated macrophage) represents an in vitro model of an inflammatory situation. Agents that block inflammatory mediator production in this assay are expected to have anti-inflammatory or immunosuppressive effects in inflammatory or immune diseases.
The half-maximal inhibitory effect (in μM) of various PJ compounds was assessed under a variety of conditions in immunostimulated J774 macrophages and in peroxynitrite-stimulated thymocytes. Macrophages or thymocytes were first treated with a chosen PJ compound for 30 min at a concentration ranging from 0.1 to 30 μM. The cells were then immunostimulated with LPS (10 μg/ml) or treated with peroxynitrite (30 μM). MIP production in the macrophages was measured at 3 h, TNF and nitric oxide were measured at 24 h, cell viability in the macrophages were measured at 24 h. PARS activation and cell death in thymocytes were measured at 6 h. Measurements of mediator production, PARS activation and cell death were essentially as described in Németh, et al., Eur J Pharmacol 339:215-221, 1997 and Virág and Szabó, Br J Pharmacol, 126: 769-777, 1999. Results in Table 2 are shown as EC50 values (half maximal inhibition of mediator production or restoration of cell viability; in μM): [mean±SEM of n=3-6 determinations].

[1] = tested on: streptozotocin diabetic mice; experiment: Streptozotocin induced diabetes: vascular function, glucose, insulin, immunostaining; assay type: in vivo, mouse
Method: Male Balb/c mice were treated intraperitoneally (i.p.) with streptozotocin (240 mg/kg dissolved in citrate buffer) or vehicle (citrate buffer). Blood glucose was then monitored weekly over 8 weeks using a one-touch blood glucose meter (Lifescan). Hyperglycemia was defined as non-fasting blood glucose level higher than 200 mg/dL. Total glycated hemoglobin (GHb) content of blood samples was measured using a commercially available kit (Sigma Diagnostics) according to manufacturers instructions. […] The optical density of the two fractions was measured by spectrophotometry at 415 nm and the per cent glycated hemoglobin content was calculated as follows: GHb (%)=[…]/(E+[…]). Samples of pancreas were removed on week 8 and weighed before being placed into 6 ml of acid ethanol (23:7:0.45, ethanol:dH2O:HCl) and homogenized. The pancreas was incubated for 72 h at 4° C. before being centrifuged. The insulin content of the supernatant was then determined using a commercially available ELISA kit (Alpco). […] At 8 weeks, blood was taken for measurement of glycosylated hemoglobin levels, pancreata taken for measurements of pancreatic insulin content, and thoracic aortae taken for determination of endothelium-dependent relaxant reactivity. There was no difference in the degree of hyperglycemia and glycosylated hemoglobin, and in the degree of pancreatic insulin loss between vehicle and PJ34 treated diabetic animals. […] Sections were treated with 0.3% hydrogen peroxide for 15 min to block endogenous peroxidase activity and then rinsed briefly in PBS. Non-specific binding was blocked by incubating the slides for 1 h in PBS containing 2% horse serum. To detect poly(ADP-ribose), a routine histochemical procedure was applied, as previously described (Scott et al., Ann. Neurol. 45: 120-124, 1999) with minor modifications, as follows: Mouse monoclonal anti-poly(ADP-ribose) antibody (Alexis, San Diego, Calif.) and isotype-matched control antibody were applied in a dilution of 1:100 for 2 h at room temperature. Following extensive washing (5×5 min) with PBS, immunoreactivity was detected with a biotinylated goat anti-rabbit secondary antibody and the avidin-biotin-peroxidase complex (ABC), both supplied in the Vector Elite kit (Vector Laboratories, Burlingame, Calif.). Color was developed using Ni-DAB substrate (95 mg diaminobenzidine, 1.6 g NaCl, 2 g nickel sulfate in 200 ml 0.1 M acetate buffer). Sections were then counterstained with nuclear fast red, dehydrated and mounted in Permount. Photomicrographs were taken with a Zeiss Axiolab microscope equipped with a Fuji HC-300C digital camera. Detection of nitrotyrosine in aorta rings was carried out as described above for poly(ADP-ribose) staining except that rabbit anti-nitrotyrosine polyclonal antibody was used as the primary antibody. […] Cells were rehydrated in PBS, blocked in 2% goat serum (1 h, room temperature) and incubated in anti-nitrotyrosine (1:100 dilution) for 2 h. Subsequent steps of the staining procedure were identical to the tissue staining. Color was developed with Vector Red substrate, and slides were mounted in glycerol.

[2] = tested on: thoracic aortic rings from wild-type mice; experiment: High glucose induced endothelial dysfunction in isolated thoracic aortic rings; set-up: species or system mouse; conditions: 30 mM glucose 16 hours; co-incubation with PJ34 1 μM
Method: Breeding pairs of mice for the PARS colony were a gift from Dr. Z. Q. Wang, International Agency for Research on Cancer Lyon, France. Thoracic aortae from PARS^−/− and PARS^+/+ mice (Wang et al., Genes Dev.9: 509-520, 1995) were harvested, cleared of periadvential fat, and cut into 3 or 4 pieces. […] Four different media preparations were used: a) normal glucose, i.e. 5 mM: in F-12K Nutrient Mixture medium (Gibco BRL—Life Technologies); b) Osmotic control, i.e. 30 mM L-glucose in F-12K medium; c) High glucose i.e. 30 mM D-glucose in F-12K medium; […].
After incubation, aortic rings were mounted in organ baths filled with warmed and gas equilibrated Krebs' solution and endothelium dependent relaxant ability was evaluated as described above.

rat = experiment: Middle cerebral artery occlusion/reperfusion
Method: Occlusion lasted for 2 hours, followed by reperfusion for 24 hours. Infarct size was quantified with tetrazolium staining, and survival and neurological scores were monitored.

cultured neurons = conditions: oxygen/glucose deprivation; concentration range 10 nM-1 μM
Text: A second experimental system was used where oxygen/glucose deprivation induced cell death in cultured neurons (i.e. an in vitro model of stroke).

mouse = experiment: Ischemic and reperfused gut (superior mesenteric artery occlusion); conditions: gut ischemia-reperfusion; 38% mortality without treatment
Text: In another model, a mouse model of ischemic and reperfused gut was utilized.

[3] = 10 mg/kg per os once a day from week 1, at 8 weeks

In the case of `CN(C)CC(=O)Nc1ccc2[nH]c(=O)c3ccccc3c2c1` [PJ34, N-(6-oxo-5,6-dihydro-phenanthridin-2-yl)-N,N-dimethylacetamide], the “production of nitric oxide, measured as nitrite (in words)” value (nitric oxide (nitrite); J774 macrophages exposed to LPS) is reported as “inhibited”, the EC50 (nitric oxide (nitrite); Mus musculus, J774, LPS 10 μg/ml, 30 min pretreatment 0.1 to 30 μM, measured at 24 h, mean±SEM n=3-6, read-out: Inhibition of Nitrite (J774)) is reported as 15.2 ± 2.8 µM and the “degree of hyperglycemia (blood glucose) vs vehicle” value ([1]; 10 mg/kg per os once a day from week 1, 0-8 weeks) is reported as “no difference”. For the same compound, the “degree of pancreatic insulin loss vs vehicle” value [1, 3] was “no difference”, the “glycosylated hemoglobin vs vehicle” value [1, 3] was “no difference” and the “PARS activation (poly(ADP-ribose) staining) in diabetic endothelium” value ([1]; 8 weeks) was “abolished”. The “tyrosine nitration (nitrotyrosine immunostaining) in diabetic rings” value ([1]; 8 weeks) was “not affected”, the “vascular reactivity of normal (non-diabetic) mice” value ([1]; chronic treatment 8 weeks, same regimen, not shown) was “did not affect” and the “acetylcholine induced endothelium-dependent relaxant ability of thoracic aortic rings” value ([1]; diabetic animals at 8 weeks, 10 mg/kg per os daily, P<0.01 vs vehicle) was “normalized”. The “impairment in endothelium-dependent relaxation by high glucose” value [2] was “prevented”, the “reduction of the size of brain infarction” value (rat; 10 mg/kg i.v. at 2 h after the start of reperfusion) was 55±8% and the “reduction of the size of brain infarction” value (rat; 10 mg/kg i.v. at the time of reperfusion (5 min before start)) was 74±6%. For the same compound, the “mortality over 24 hours (in words)” value (rat; 2 hours occlusion, 24 hours reperfusion, 10 mg/kg i.v., 73% mortality in control or vehicle) was “no animals died”, the “neurological deficit (scale of 1-4)” value (rat; 24 h, vehicle survivors scored 4) was “no detectable deficit” and the cytoprotection (cultured neurons) was “up to 70%”. For the same compound, the survival (mouse) was 100%.

Source: US6531464B1, “Methods for the treatment of neurodegenerative disorders using substituted phenanthridinone derivatives” (Inotek Pharmaceutical Corporation, priority 1999, dated 2003)
